Numbering of substitutions follows the chain as printed.
Tests used:
Test in all cases: KINOMEscan kinase binding assay (Eurofins/DiscoveRx), % Ctrl
kinases [1] = target: T1, kinases (Homo sapiens, UniProt P36888, K663Q)
T1 construct: purchased Eurofins/DiscoveRx; host or cells: E. coli BL21-derived host (T7 phage display) for most kinases; HEK-293 for the rest
T1 sequence (P36888 27-993 K663Q): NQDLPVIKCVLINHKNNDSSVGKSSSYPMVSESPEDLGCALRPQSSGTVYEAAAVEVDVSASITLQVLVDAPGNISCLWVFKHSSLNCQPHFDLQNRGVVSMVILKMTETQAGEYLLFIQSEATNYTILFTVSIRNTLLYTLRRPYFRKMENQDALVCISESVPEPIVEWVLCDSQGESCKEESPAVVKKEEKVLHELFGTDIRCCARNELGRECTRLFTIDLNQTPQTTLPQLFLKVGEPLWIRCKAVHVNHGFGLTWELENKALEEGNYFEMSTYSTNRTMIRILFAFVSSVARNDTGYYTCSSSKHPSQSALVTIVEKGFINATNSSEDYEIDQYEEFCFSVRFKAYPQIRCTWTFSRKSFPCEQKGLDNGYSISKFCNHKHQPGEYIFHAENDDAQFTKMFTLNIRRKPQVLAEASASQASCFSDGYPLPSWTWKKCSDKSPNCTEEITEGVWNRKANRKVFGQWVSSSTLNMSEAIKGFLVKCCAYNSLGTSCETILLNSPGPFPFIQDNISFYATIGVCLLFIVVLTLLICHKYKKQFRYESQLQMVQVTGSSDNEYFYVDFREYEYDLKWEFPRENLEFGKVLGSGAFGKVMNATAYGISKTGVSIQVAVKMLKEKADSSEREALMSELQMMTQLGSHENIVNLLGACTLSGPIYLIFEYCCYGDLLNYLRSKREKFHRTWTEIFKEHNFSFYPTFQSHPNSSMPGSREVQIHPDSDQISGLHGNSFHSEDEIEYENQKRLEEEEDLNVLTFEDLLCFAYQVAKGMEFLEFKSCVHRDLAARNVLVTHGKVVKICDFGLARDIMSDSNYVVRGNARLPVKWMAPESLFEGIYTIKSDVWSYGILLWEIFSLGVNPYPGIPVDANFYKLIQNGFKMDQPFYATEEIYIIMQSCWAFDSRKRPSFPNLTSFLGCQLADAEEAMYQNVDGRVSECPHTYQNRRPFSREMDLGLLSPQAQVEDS
Method in brief: (§1)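 Competition binding, 1 h RT: phage-tagged or HEK-293-expressed DNA-tagged kinase + immobilized ligand + compound. Eluate kinase by qPCR. % Ctrl = (test − positive ctrl)/(negative ctrl − positive ctrl) × 100; lower means stronger binding.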

kinases [2] = target: T2, kinases (Homo sapiens, UniProt P36888)
T2 construct: purchased Eurofins/DiscoveRx; host or cells: E. coli BL21-derived host (T7 phage display) for most kinases; HEK-293 for the rest
T2 sequence (P36888 27-993): T1 sequence (P36888 27-993 K663Q) with Q637K
Method in brief: as §1

kinases [3] = target: T3, kinases (Homo sapiens, UniProt P10721, A829P)
T3 construct: purchased Eurofins/DiscoveRx; host or cells: E. coli BL21-derived host (T7 phage display) for most kinases; HEK-293 for the rest
T3 sequence (P10721 26-976 A829P): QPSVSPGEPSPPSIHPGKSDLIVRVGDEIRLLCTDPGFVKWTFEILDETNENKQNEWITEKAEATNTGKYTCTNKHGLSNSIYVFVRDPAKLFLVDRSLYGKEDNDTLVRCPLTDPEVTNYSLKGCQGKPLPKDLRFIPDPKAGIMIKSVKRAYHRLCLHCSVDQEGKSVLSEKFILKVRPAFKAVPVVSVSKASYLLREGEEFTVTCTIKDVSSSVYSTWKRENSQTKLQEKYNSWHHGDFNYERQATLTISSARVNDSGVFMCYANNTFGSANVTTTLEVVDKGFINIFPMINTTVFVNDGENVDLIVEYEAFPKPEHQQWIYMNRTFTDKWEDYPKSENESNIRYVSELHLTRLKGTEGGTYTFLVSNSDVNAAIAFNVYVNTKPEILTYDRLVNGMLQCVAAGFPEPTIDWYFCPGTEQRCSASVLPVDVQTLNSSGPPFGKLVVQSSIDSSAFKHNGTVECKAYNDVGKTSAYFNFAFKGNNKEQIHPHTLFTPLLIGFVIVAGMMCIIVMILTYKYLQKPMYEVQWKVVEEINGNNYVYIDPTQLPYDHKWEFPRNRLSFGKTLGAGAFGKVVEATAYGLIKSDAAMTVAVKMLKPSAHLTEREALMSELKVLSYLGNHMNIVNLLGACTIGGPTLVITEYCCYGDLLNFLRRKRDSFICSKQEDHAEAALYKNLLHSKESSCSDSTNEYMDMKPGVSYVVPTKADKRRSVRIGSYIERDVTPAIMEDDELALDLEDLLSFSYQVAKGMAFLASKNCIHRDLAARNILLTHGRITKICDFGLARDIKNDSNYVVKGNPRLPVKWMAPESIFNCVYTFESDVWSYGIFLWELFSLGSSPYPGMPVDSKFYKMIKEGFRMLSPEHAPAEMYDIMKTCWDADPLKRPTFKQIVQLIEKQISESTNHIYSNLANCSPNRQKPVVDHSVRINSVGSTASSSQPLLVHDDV
Method in brief: as §1

kinases [4] = target: T4, kinases (Homo sapiens, UniProt P00519, T315I)
T4 construct: purchased Eurofins/DiscoveRx; host or cells: E. coli BL21-derived host (T7 phage display) for most kinases; HEK-293 for the rest
Method in brief: as §1

[5] = 1 μM; ABL1(T315I)-nonphosphorylated
[6] = 1 μM; ABL1(T315I)-phosphorylated
[7] = 1 μM; target FLT3-autoinhibited
[8] = 1 μM; target ABL1(T315I)-nonphosphorylated
[9] = 1 μM; target ABL1(T315I)-phosphorylated

SMILES | % Ctrl, FLT3(K663Q) (kinases [1]; 1 μM; FLT3(K663Q)) [% Ctrl] | % Ctrl, FLT3 (kinases [2]; 1 μM; FLT3) [% Ctrl] | % Ctrl, FLT3-autoinhibited (kinases [2]; 1 μM; FLT3-autoinhibited) [% Ctrl] | % Ctrl, KIT(A829P) (kinases [3]; 1 μM; KIT(A829P)) [% Ctrl] | % Ctrl, ABL1(T315I)-nonphosphorylated (kinases [4]; [5]) [% Ctrl] | % Ctrl, ABL1(T315I)-phosphorylated (kinases [4]; [6]) [% Ctrl] | further results
Cc1cc2c([nH]1)/C=C1\C(=O)Nc3ccc(cc31)CN(C)C(=O)COCCNC2=O [Ex.111, [17a(18)Z]-2,11-dimethyl-6,7,11,12-tetrahydro-1H-13,15-(ethanediylidene)dipyrrolo[3,2-f:3′,4′-i][1,4,14]oxadiazacyclohexadecine-4,10,17(5H,9H,16H)-trione] | 44 | 45 | 95 | 100 | 90 | 64 | –
Cc1cc2c([nH]1)/C=C1\C(=O)Nc3ccc(cc31)-c1c(C)nn(C)c1COCCN(C)C2=O [Ex. 146, [3a(4)Z]-6,9,14,16-tetramethyl-10,11,13,14-tetrahydro-2H-1,17-(ethanediylidene)pyrazolo[4,3-m]dipyrrolo[3,2-f:3′,4′-i][1,4]oxazacyclopentadecine-3,8(5H,9H)-dione] | – | – | – | – | – | – | % Ctrl, FLT3(K663Q) (kinases [1]; target FLT3(K663Q); 1 μM): 14 % Ctrl; % Ctrl, FLT3-autoinhibited (kinases [2]; target FLT3-autoinhibited; 1 μM): 100 % Ctrl; % Ctrl, FLT3 (kinases [2]; target FLT3; 1 μM): 24 % Ctrl; % Ctrl, KIT(A829P) (kinases [3]; target KIT(A829P); 1 μM): 92 % Ctrl; % Ctrl, ABL1(T315I)-nonphosphorylated (kinases [4]; target ABL1(T315I)-nonphosphorylated; 1 μM): 64 % Ctrl; % Ctrl, ABL1(T315I)-phosphorylated (kinases [4]; target ABL1(T315I)-phosphorylated; 1 μM): 34 % Ctrl
Cc1cc2c([nH]1)/C=C1\C(=O)Nc3cnc(nc31)N(C)CCCOCCN(C)C2=O [Ex.71, [17a(18)Z]-2,5,12-trimethyl-6,7,9,10,11,12-hexahydro-1H-13,15-(azenometheno)dipyrrolo[3,2-f:3′,4′-i][1,4,11,13]oxatriazacyclohexadecine-4,17(5H,16H)-dione] | 84 | 93 | 100 | 100 | 100 | 100 | –
Cc1cc2c([nH]1)/C=C1\C(=O)Nc3ccc(cc31)OCCOCCN(C)C2=O [Ex.91, [16a(17)Z]-2,5-dimethyl-6,7,9,10-tetrahydro-1H-12,14-(ethanediylidene)dipyrrolo[3,2-i:3′,4′-l][1,4,7]dioxazacyclopentadecine-4,16(5H,15H)-dione] | 63 | 11 | 38 | 32 | 4.5 | 5.8 | –
Cc1cc2c([nH]1)/C=C1\C(=O)Nc3ccc(cc31)-c1cnn(C)c1OCCCN(C)C2=O [Ex. 166, [3a(4)Z]-9,14-dimethyl-9,10,11,12-tetrahydro-14H-1,17-(ethanediylidene)pyrazolo[4,3-n]dipyrrolo[3,2-g:3′,4′-j][1,5]oxazacyclopentadecine-3,8(2H,5H)-dione] | – | – | – | – | – | – | % Ctrl, FLT3(K663Q) (kinases [1]; 1 μM; target FLT3(K663Q)): 1.7 % Ctrl; % Ctrl, FLT3 (kinases [2]; 1 μM; target FLT3): 4.2 % Ctrl; % Ctrl, FLT3-autoinhibited (kinases [2]; [7]): 2 % Ctrl; % Ctrl, KIT(A829P) (kinases [3]; 1 μM; target KIT(A829P)): 28 % Ctrl; % Ctrl, ABL1(T315I)-nonphosphorylated (kinases [4]; [8]): 1.4 % Ctrl; % Ctrl, ABL1(T315I)-phosphorylated (kinases [4]; [9]): 1.2 % Ctrl
Cc1cc2c([nH]1)/C=C1\C(=O)Nc3ccc(cc31)-c1c(C)n[nH]c1CNCCN(C)C2=O [Ex. 127, [3a(4)Z]-6,9,16-trimethyl-9,10,11,12,13,14-hexahydro-1,17-(ethanediylidene)pyrazolo[4,3-m]dipyrrolo[3,2-f:3′,4′-i][1,4]diazacyclopentadecine-3,8(2H,5H)-dione] | 5.3 | 4.6 | 9.9 | 60 | 0 | 0.65 | –
Cc1cc2c([nH]1)/C=C1\C(=O)Nc3ccc(cc31)OCCOCCNC2=O [Ex. 129, [16a(17)Z]-2-methyl-6,7,9,10-tetrahydro-1H-12,14-(ethanediylidene)dipyrrolo[3,2-i:3′,4′-l][1,4,7]dioxazacyclopentadecine-4,16(5H,15H)-dione] | 100 | 100 | 98 | 100 | 92 | 91 | –
Cc1cc2c([nH]1)/C=C1\C(=O)Nc3ccc(cc31)-c1c(noc1C)COCCN(C)C2=O [Ex. 128, [3a(4)Z]-6,9,16-trimethyl-1,11-dihydro-2H,13H-1,17-(ethanediylidene)[1,4]oxazolo[4,3-m]dipyrrolo[3,2-f:3′,4′-i][1,4]oxazacyclopentadecine-3,8(5H,9H)-dione] | 77 | 66 | 89 | 86 | 20 | 4.2 | –
Cc1cc2c([nH]1)/C=C1\C(=O)Nc3ccc(cc31)-c1c(noc1C(C)C)COCCN(C)C2=O [Ex. 161, [3a(4)Z]-9-methyl-16-(propan-2-yl)-10,11-dihydro-2H,13H-1,17-(ethanediylidene)[1,2]oxazolo[4,3-m]dipyrrolo[3,2-f:3′,4′-i][1,4]oxazacyclopentadecine-3,8(5H,9H)-dione] | – | – | – | – | – | – | % Ctrl, FLT3(K663Q) (kinases [1]; 1 μM; target FLT3(K663Q)): 54 % Ctrl; % Ctrl, FLT3 (kinases [2]; 1 μM; target FLT3): 100 % Ctrl; % Ctrl, FLT3-autoinhibited (kinases [2]; [7]): 100 % Ctrl; % Ctrl, KIT(A829P) (kinases [3]; 1 μM; target KIT(A829P)): 95 % Ctrl; % Ctrl, ABL1(T315I)-nonphosphorylated (kinases [4]; [8]): 90 % Ctrl; % Ctrl, ABL1(T315I)-phosphorylated (kinases [4]; [9]): 85 % Ctrl
Cc1cc2c([nH]1)/C=C1\C(=O)Nc3ccc(cc31)O[C@@H](C)COCCN(C)C2=O [Ex. 92, [10S,16a(17)Z]-2,5,10-trimethyl-6,7,9,10-tetrahydro-1H-12,14-(ethanediylidene)dipyrrolo[3,2-i:3′,4′-l][1,4,7]dioxazacyclopentadecine-4,16(5H,15H)-dione] | 57 | 77 | 96 | 100 | 12 | 66 | –

From patent publication US20230257396A1, “MACROCYCLES AND THEIR USE” (BLOSSOMHILL THERAPEUTICS, INC., priority 2020, published 2023)
